Source: publication PMC11233932, “Identification of an alternative ligand‐binding pocket in peroxisome proliferator‐activated receptor gamma and its correlated selective agonist for promoting beige adipocyte differentiation” (MedComm, 2024)

Biological target: T1, peroxisome proliferator-activated receptor gamma (PPARγ) (Mus musculus, UniProt P37238)
T1 construct: gene Pparg; LBD, GFP fusion overexpressed in 293T cells
T1 sequence (P37238 238-505 limits assumed): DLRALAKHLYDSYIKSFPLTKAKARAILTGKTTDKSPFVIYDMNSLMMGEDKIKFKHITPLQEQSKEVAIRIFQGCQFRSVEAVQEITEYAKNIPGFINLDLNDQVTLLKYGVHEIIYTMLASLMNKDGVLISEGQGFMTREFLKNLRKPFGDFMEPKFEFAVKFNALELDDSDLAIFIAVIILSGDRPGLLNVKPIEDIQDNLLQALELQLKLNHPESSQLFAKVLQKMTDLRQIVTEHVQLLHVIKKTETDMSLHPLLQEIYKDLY
Experiment: microscale thermophoresis with GFP-PPARγ LBD in cell lysate; supported by luciferase reporter (partial agonist)
Type: binding

## C[C@H]1O[C@@H](O[C@H]2CC[C@@]3(C)[C@@H](CC[C@]4(C)[C@@H]3C=C[C@]35OC[C@@]6(CCC(C)(C)C[C@H]63)[C@@H](O)C[C@]54C)[C@]2(C)CO)[C@H](O)[C@@H](O[C@@H]2O[C@H](CO)[C@@H](O)[C@H](O)[C@H]2O)[C@H]1O [NJT-2, saikosaponin A]
  Kd: 5.07 µM
